Values quoted from earlier work as cited in patent US12612577B2, “Perfumed compositions, process of preparing thereof and uses” (MINASOLVE SAS, priority 2019, dated 2026).

Tested on: bacteria and fungi
Settings: against bacteria and fungi

## CCCC(O)CO (stereo not shown) [1,2-pentanediol]
  minimum inhibitory concentration (MIC): 5%
